Experimental data taken from ChEMBL document CHEMBL5131511, “Design of artificial α-helical peptides targeting both gp41 deep pocket and subpocket as potent HIV-1 fusion inhibitors” (Eur J Med Chem, 2022).
Where a SMILES comes first, the peptide text is derived from it. [ ]: non-standard residue; d: D form. The star is where a group is joined. O(cholesteryl) = CC(C)CCC[C@@H](C)[C@H]1CC[C@H]2[C@@H]3CC=C4C[C@@H](O*)CC[C@]4(C)[C@H]3CC[C@]12C; PEG8 = NCCOCCOCCOCCOCCOCCOCCOCCOCCC(=O)O; PEG4 = NCCOCCOCCOCCOCCC(=O)O

Legend:
[1] = tested on: Human immunodeficiency virus 1; assay: Antiviral activity against HIV-1 IIIB (B, X4) assessed as inhibition of viral replication measured after 4 days by ELISA; assay type: functional, organism-based; details: Human immunodeficiency virus 1, IIIB (B, X4), 96 h
[2] = tested on: Human immunodeficiency virus 1; assay: Antiviral activity against HIV-1 IIIB assessed as inhibition of viral replication measured after 4 days by ELISA; assay type: functional, organism-based; details: Human immunodeficiency virus 1, IIIB, 96 h

EC50 [1] [nM] | EC50 [2] [nM] | Molecule
> 10000 | – | Ac-WEEWDKKIEELIKKSEELIKKIEEQIKK-NH2
40.8 | – | Ac-QEESIKKWEEWDKKIEELIKKSEELIKKIEEQIKK-NH2
– | 21.2 | CC[C@H](C)[C@H](NC(=O)[C@H](CCC(N)=O)NC(=O)[C@H](CCC(=O)O)NC(=O)[C@H](CCC(=O)O)NC(=O)[C@@H](NC(=O)[C@H](CCCCN)NC(=O)[C@H](CCCCN)NC(=O)[C@@H](NC(=O)[C@H](CC(C)C)NC(=O)[C@H](CCC(=O)O)NC(=O)[C@H](CCC(=O)O)NC(=O)[C@H](CO)NC(=O)[C@H](CCCCN)NC(=O)[C@H](CCCCN)NC(=O)[C@@H](NC(=O)[C@H](CC(C)C)NC(=O)[C@H](CCC(=O)O)NC(=O)[C@H](CCC(=O)O)NC(=O)[C@@H](NC(=O)[C@H](CCCCN)NC(=O)[C@H](CCCCN)NC(=O)[C@H](CO)NC(=O)[C@H](Cc1c[nH]c2ccccc12)NC(=O)[C@H](CCC(=O)O)NC(=O)[C@H](CCC(=O)O)NC(=O)[C@H](Cc1c[nH]c2ccccc12)NC(=O)[C@H](CCCCN)NC(=O)[C@H](CCCCN)NC(=O)[C@@H](NC(=O)[C@H](CO)NC(=O)[C@H](CCC(=O)O)NC(=O)[C@H](CCC(=O)O)NC(=O)[C@H](CCC(N)=O)NC(C)=O)[C@@H](C)CC)[C@@H](C)CC)[C@@H](C)CC)[C@@H](C)CC)[C@@H](C)CC)C(=O)N[C@@H](CCCCN)C(=O)N[C@@H](CCCCN)C(=O)NCCOCCOCCOCCOCCOCCOCCOCCOCCC(=O)N[C@@H](CS)C(=O)O[C@H]1CC[C@@]2(C)C(=CC[C@H]3[C@@H]4CC[C@H]([C@H](C)CCCC(C)C)[C@@]4(C)CC[C@@H]32)C1 (Ac-QEESIKKWEEWSKKIEELIKKSEELIKKIEEQIKK[PEG8]C-{O(cholesteryl)})
– | 44.4 | CC[C@H](C)[C@H](NC(=O)[C@H](CCC(N)=O)NC(=O)[C@H](CCC(=O)O)NC(=O)[C@H](CCC(=O)O)NC(=O)[C@@H](NC(=O)[C@H](CCCCN)NC(=O)[C@H](CCCCN)NC(=O)[C@@H](NC(=O)[C@H](CC(C)C)NC(=O)[C@H](CCC(=O)O)NC(=O)[C@H](CCC(=O)O)NC(=O)[C@H](CO)NC(=O)[C@H](CCCCN)NC(=O)[C@H](CCCCN)NC(=O)[C@@H](NC(=O)[C@H](CC(C)C)NC(=O)[C@H](CCC(=O)O)NC(=O)[C@H](CCC(=O)O)NC(=O)[C@@H](NC(=O)[C@H](CCCCN)NC(=O)[C@H](CCCCN)NC(=O)[C@H](CO)NC(=O)[C@H](Cc1c[nH]c2ccccc12)NC(=O)[C@H](CCC(=O)O)NC(=O)[C@H](CCC(=O)O)NC(=O)[C@H](Cc1c[nH]c2ccccc12)NC(=O)[C@H](CCCCN)NC(=O)[C@H](CCCCN)NC(=O)[C@@H](NC(=O)[C@H](CO)NC(=O)[C@H](CCC(=O)O)NC(=O)[C@H](CCC(=O)O)NC(=O)[C@H](CCC(N)=O)NC(C)=O)[C@@H](C)CC)[C@@H](C)CC)[C@@H](C)CC)[C@@H](C)CC)[C@@H](C)CC)C(=O)N[C@@H](CCCCN)C(=O)N[C@@H](CCCCN)C(=O)NCCOCCOCCOCCOCCC(=O)N[C@@H](CS)C(=O)O[C@H]1CC[C@@]2(C)C(=CC[C@H]3[C@@H]4CC[C@H]([C@H](C)CCCC(C)C)[C@@]4(C)CC[C@@H]32)C1 (Ac-QEESIKKWEEWSKKIEELIKKSEELIKKIEEQIKK[PEG4]C-{O(cholesteryl)})
36.3 | – | Ac-QIWNNMTWEEWDKKIEELIKKSEELIKKIEEQIKK-NH2
68.7 | – | Ac-QEENNKKWEEWDKKIEELIKKSEELIKKIEEQIKK-NH2
